Results from patent US12390437B2, “Itaconic acid derivatives and uses thereof intreating an inflammatory disease or a disease associated with an undesirable immune response” (Sitryx Therapeutics Limited, priority 2019, dated 2025).
Structures can show the parent of a compound that is named as a salt.

Legend:
Assay type in all cases: cell-based
[1] = system: IL-1β cytokine output from isolated primary HMDMs; assay: Primary human monocyte derived macrophages (HMDMs) AlphaLISA IL-1β cytokine assay; details: primary HMDMs (M-CSF 7 day), LPS 24 hr then Nigericin 1 hour
Experimental: Measuring Inhibitory Effects on IL-1β Cytokine Output from Isolated Primary HMDMs
The cytokine inhibition profiles of compounds of formula (IW-1) were determined in a monocyte differentiated macrophage cell assay. All assays were performed in RPMI-1640 growth medium (Gibco), supplemented with heat-inactivated fetal bovine serum (FBS) and 1% penicillin-streptomycin unless specified otherwise. The IL-1β cytokine inhibition assay was run in a background of isolated primary HMDM cells as described below. All reagents described were from Sigma-Aldrich unless specified otherwise. Compounds were prepared as 100 mM DMSO stocks.
Primary peripheral blood mononuclear cells (PBMCs) were isolated from human whole blood. Following PBMC isolation, a CD14^+ monocyte isolation step was conducted whereby CD14^+ magnetic beads (Miltenyi Biotec) were incubated for 15 minutes with the PBMC suspension that was previously treated with ice cold T-cell isolation buffer (PBS, 0.5% BSA, 2 mM EDTA). Following bead incubation, the treated cell suspension was passed through a magnetic separation column designed to positively select for magnetically labelled cells. The isolated CD14^+ monocytes were subsequently plated at an appropriate cell density and treated fora 7 day period with M-CSF (BioLegend) to drive macrophage differentiation. Following the differentiation period, working concentrations of compounds were prepared separately in RPMI-1640 only growth medium and pre-incubated with the cells for 30 minutes (37° C./5% CO2). Following the 30 minute compound pre-incubation, primary HMDMs were treated with an appropriate concentration of LPS and subsequently incubated for a 24 hr period (37° C./5% CO2). Nigericin was added and incubated for 1 hour prior to harvesting primary HMDM supernatants and collected in separate polypropylene 96-well holding plates prior to commencing the AlphaLISA cytokine assay.
Reagents from the IL-1β commercial kit (Perkin Elmer) was prepared and run according to the manufacturer's instructions. Subsequently, fluorescence signal was measured in a microplate reader (EnVision® Multilabel Reader, Perkin Elmer).
(§1) Percentage inhibition was calculated per cytokine by normalising the sample data to the high and low controls used within each plate (+/−LPS respectively). Percentage inhibition was then plotted against compound concentration and the 50% inhibitory concentration (IC50) was determined from the resultant concentration-response curve.

NQO1 = NQO1 enzyme activation assay as a readout of NRF2 activation in THP-1 cells; details: Homo sapiens; for Emax: THP-1, percentage activation at top concentration, normalised to DMF (100%) and vehicle controls; for EC50: differentiated THP-1 cells, LPS, 48 hr
Experimental: NQO1 Enzyme Activation Assay as a Readout of NRF2 Activation in THP-1 Cellular Background
NAD(P)H dehydrogenase [quinone] […] Induction of this gene is concomitant with the inhibition of proinflammatory cytokine transcription and suppression of the inflammatory response (Kobayashi E. H. et al., 2016). The NQO1 enzyme activation activities of compounds of formula (IW-1) were determined using a cellular based NQO1 activation assay (Abcam). The NQO1 activation assay was run in differentiated THP-1 cells (a human monocyte-like cell line) as described below. All reagents described are from Sigma-Aldrich unless specified otherwise. Compounds were prepared as 10 mM DMSO stocks.
THP-1 cells were expanded as a suspension up to 80% confluence in appropriate growth medium. Cells were harvested, suspended, treated with phorbol 12-myristate 13-acetate (PMA) and plated according to the cell density required for each plate format over a 72 hr period (37° C./5% CO2).
Following 72 hrs of THP-1 cell incubation, cellular medium was removed and replaced with fresh media. Working concentrations of compounds were prepared and pre-incubated for 30 minutes (37° C./5% CO2). Compound treatment was then applied to the PMA treated THP-1 cell plate followed by LPS treatment. A ‘low’ (DMSO vehicle only) control and ‘high’ (designated concentration of dimethyl fumarate) was applied to each plate at the point of compound treatment. Cells were subsequently incubated for a 48 hr period (37° C./5% C02) after which all NQO1 assay reagents were prepared according to the manufacturer's instructions. NQO1 extraction buffer was applied to PBS washed THP-1 cells and incubated on ice for 15 minutes to prepare THP-1 lysates for the NQO1 activity assay. THP-1 lysates were diluted 1:5 with PBS and treated with a 1:1 volume of kit prepared NQO1 Reaction Buffer. Absorbance was subsequently measured kinetically on an appropriate reader over a 6 minute period.
For activation determination, the fold change in response per well was determined by first calculating the average NQO1 activation data for the vehicle control and then dividing the individual well response by the averaged NQO1 response for the vehicle control as shown below: Fold change=(Sample value)/MeanMin Where ‘Min’=vehicle control only
The relative 50% activation concentration (EC50) was determined from the resulting fold change response curve. The maximum efficacy (Emax) was reported as the percentage activation calculated at the top concentration of compound used in the titration applied. If a full curve was unattainable preventing a correct curve fit, the Emax value was extrapolated using existing curve data. All percentage activation data were normalised to the DMF and vehicle controls, meaning the Emax represents the percentage […] achieved by a compound at a particular concentration relative to that achieved by DMF (set as the ‘High’ control and therefore representative of 100% activation).

[2] = system: IL-1β cytokine output from isolated primary human monocytes; assay: Primary human monocyte AlphaLISA IL-1β cytokine assay; details: CD14+ primary human monocytes, LPS 24 hr then Nigericin 1 hour; for IC50: Monocyte
Experimental: Measuring Inhibitory Effects on IL-1β and IL-6 Cytokine Output from Isolated Primary Human Monocytes
The cytokine inhibition profiles of compounds of formula (IW-1) were determined in a CD14^+ isolated primary human monocyte cell assay. All assays were performed in RPMI-1640 growth medium (Gibco), supplemented with heat-inactivated fetal bovine serum (FBS) and 1% penicillin-streptomycin unless specified otherwise. The IL-1β and IL-6 cytokine inhibition assays were each run in a background of isolated primary human monocyte cells as described below. All reagents described were from Sigma-Aldrich unless specified otherwise. Compounds were prepared as 100 mM DMSO stocks.
Primary peripheral blood mononuclear cells (PBMCs) were isolated from human whole blood. Following PBMC isolation, a CD14^+ monocyte isolation step was conducted whereby CD14^+ magnetic beads (Miltenyi Biotec) were incubated for 15 minutes with the PBMC suspension that was previously treated with ice cold T-cell isolation buffer (PBS, 0.5% BSA, 2 mM EDTA). Following bead incubation, the treated cell suspension was passed through a magnetic separation column designed to positively select for magnetically labelled cells. The isolated CD14^+ monocytes were subsequently plated at the appropriate cell density for the assay, prior to compound treatment on the day of plating. Working concentrations of compounds were prepared separately in RPMI-1640 only growth medium and pre-incubated with the cells for 30 minutes (37° C./5% CO2). Following the 30 minute compound pre-incubation, primary monocytes were treated with an appropriate concentration of LPS and subsequently incubated for a 24 hr period (37° C./5% CO2). An appropriate final concentration of Nigericin was then dispensed into the primary monocyte plates and incubated for 1 hour (37° C./5% CO2) before monocyte supernatants were harvested and collected in separate polypropylene 96-well holding plates prior to commencing the AlphaLISA cytokine assay.
Reagents from each of the IL-1β and IL-6 commercial kits (Perkin Elmer) were prepared and run according to the manufacturer's instructions. Subsequently, fluorescence signal was measured in a microplate reader (EnVision® Multilabel Reader, Perkin Elmer).
as §1

| IC50 [1] [µM] | EC50 (NQO1) [µM] | IC50 [2] [µM] | IL-1β (IC50) [2] | Structure (SMILES) | Emax (NQO1) [%] |
| --- | --- | --- | --- | --- | --- |
| 0.4 | 6.9 | 8.9 |  | C=C(CC(=O)OCCCCCCCC)C(=O)OCCC#N [Example 1, 1-(2-cyanoethyl) 4-octyl 2-methylenesuccinate] | 167 |
| 0.3 | 4.6 | 3.6 | lower IC5s than dimethyl fumarate | C=C(CC(=O)OCCCCCCCC)C(=O)OCCS(C)(=O)=O [Example 2, 1-(2-(methylsulfonyl)ethyl) 4-octyl 2-methylenesuccinate] | 213 |
| 0.7 | 14.7 | 3.9 | lower IC5s than dimethyl fumarate | C=C(CC(=O)OCCCCCCCC)C(=O)OCCC(F)(F)F [Example 3, 4-octyl 1-(3,3,3-trifluoropropyl) 2-methylenesuccinate] | 91 |
| 0.4 | 13.6 |  |  | C=C(CC(=O)OCCCCCCCC)C(=O)OC1COC1 [Example 4, 4-octyl 1-(oxetan-3-yl) 2-methylenesuccinate] | 171 |
| 1.2 | 9.8 | 3.3 | lower IC5s than dimethyl fumarate | C=C(CC(=O)OCCCCCCCC)C(=O)OCCN1C(=O)CCC1=O [Example 9, 1-(2-(2,5-dioxopyrrolidin-1-yl)ethyl) 4-octyl 2-methylenesuccinate] | 98 |
|  |  | 17.3 |  | C=C(CC(=O)O[C@H](C)CCCCCC)C(=O)OCCC(=O)O [Example 88, (R)-3-((2-methylene-4-(octan-2-yloxy)-4-oxobutanoyl)oxy)propanoic acid] |  |
|  |  | 81.3 |  | C=C(CC(=O)OC1CCCCCCC1)C(=O)OCC(=O)O [Example 90, 2-((4-(cyclooctyloxy)-2-methylene-4-oxobutanoyl)oxy)acetic acid] |  |
|  |  | 13.7 |  | C=C(CC(=O)O[C@H](C)CCCCCC)C(=O)OCC(=O)O [Example 112, (R)-2-((2-methylene-4-(octan-2-yloxy)-4-oxobutanoyl)oxy)acetic acid] |  |
| 2 | 12.9 | 8.5 |  | COC(=O)/C=C/C(=O)OC [dimethyl fumarate, reference compound] | 126 |
|  | 74.1 |  |  | C=C(CC(=O)OC)C(=O)OC [dimethyl itaconate, reference compound] | 144 |
